Laboratory results as given in US20240238268A1, “TREATMENTS AND METHODS FOR TREATING ALZHEIMER'S DISEASE” (Board of Supervisors of Louisiana State University and …, priority 2021, published 2024).

Molecular target: T1, PRMT4 (Mus musculus, UniProt Q9WVG6)
T1 construct: Protein was extracted from dissected tissue in an extraction buffer; from tissue; host or cells: mouse brain (cortex, hippocampus, whole brain lysate) of 3xTg-AD and C57BL/6J mice
T1 sequence (Q9WVG6 1-608): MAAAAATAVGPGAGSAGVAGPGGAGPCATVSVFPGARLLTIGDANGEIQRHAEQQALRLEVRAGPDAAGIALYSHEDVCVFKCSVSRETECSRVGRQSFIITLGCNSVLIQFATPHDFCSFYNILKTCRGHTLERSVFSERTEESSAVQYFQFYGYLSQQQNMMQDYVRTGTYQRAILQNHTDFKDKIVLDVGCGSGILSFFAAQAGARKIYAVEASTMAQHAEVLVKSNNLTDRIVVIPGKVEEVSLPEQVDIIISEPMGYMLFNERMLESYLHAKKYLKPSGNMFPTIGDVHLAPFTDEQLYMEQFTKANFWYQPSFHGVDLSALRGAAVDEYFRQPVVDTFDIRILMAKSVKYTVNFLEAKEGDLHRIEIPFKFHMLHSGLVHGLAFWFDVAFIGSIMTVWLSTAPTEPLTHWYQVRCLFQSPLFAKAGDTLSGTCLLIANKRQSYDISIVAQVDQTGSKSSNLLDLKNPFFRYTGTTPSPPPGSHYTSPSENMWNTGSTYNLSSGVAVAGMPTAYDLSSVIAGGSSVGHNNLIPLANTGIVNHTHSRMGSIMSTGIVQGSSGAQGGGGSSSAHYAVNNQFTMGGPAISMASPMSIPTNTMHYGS
Assay: PRMT4 protein level in brain, capillary-based immunoassay
Format: in vivo
Conditions: IP
Experimental: Dosage, delivery of TP-064: PRMT4 specific inhibitor (TP-064, 30 mg/kg/day for 7 days, IP) was administered once daily for 7 or 21 days to young (4-6 months) and aged (9-12 months) C57BL/6J and 3xTg-AD, male and female mice. The inventors have found a dose response curve that evidences that 30 mg/kg (I.P.) of TP-064 decreases PRMT4 (FIG. 10A). TP-064 was dissolved in 100% DMSO, diluted in 0.9% saline (total injection volume=100 μL, ˜1.5% DMSO in mouse), greater than 5% DMSO can affect the brain.
Treatment regimen: Aged (9-12 month) females from both C57BL6/J as well as 3xTg-AD strains were randomly selected and placed in experimental groups. Treatment consisted of specific PRMT4 inhibitor TP-064 (Cat. No. 6008, Tocris, Minneapolis, MN) (Zhang, de Boer, van der Wel, Van Eck, & Hoekstra, 2021); (Zhong et al., 2018). The pharmacological mechanism of TP-064 has not been well-elucidated though it is thought to act as an allosteric inhibitor of the PRMT4 active site (Nakayama et al., 2018). Based on the pharmacokinetic data provided by the Structural Genomics Consortium (https://www.thesgc.org/), a dose of 30 mg/kg was selected. […] Final dose was calculated based on animal weight.
Capillary-phoresis immunoassay via ProteinSimple®: Quantification of all protein targets was achieved using Simple Western analysis in a Jess™ apparatus per the manufacturer's protocol (ProteinSimple, Bio-techne, Minneapolis, MN). […] Following homogenization and centrifugation (10,000×g, 5 min, 4° C.), protein concentration was determined in tissue protein supernatant samples using DC Protein Assay (Cat. No. 5000112, Bio-Rad Laboratories, Hercules, California) according to manufacturer instructions. […] Antibody diluent (ProteinSimple, Bio-techne, Minneapolis, MN) was used for all antibody dilutions as follows: PRMT4 (1:50, RRID: AB_2068436), PRMT6 (1:100, Cell Signaling Technology cat. 14641), eNOS (1:200, RRID: AB_10850618), nNOS (1:100, RRID: AB_2152488), iNOS (1:100, RRID: AB_10000625), DDAH2 (1:50, RRID: AB_2640442) Antibodies were detected using HRP-conjugated secondary anti-rabbit, and -mouse. […]

[1] = aged 3xTg-AD female mice, 30 mg/kg for 7 days, normalized to total protein

cortical PRMT4 protein level [1]: reduced | hippocampal PRMT4 protein level [1]: reduced
Structure (SMILES): CNCCN1CCC(c2cc(CN(C)C(=O)c3cccc(Oc4ccccc4)c3)ccn2)CC1 [TP-064, N-Methyl-N-((2-(1-(2-(methylamino)ethyl)piperidin-4-yl)pyridin-4-yl)methyl)-3-phenoxybenzamide]
PRMT4 expression in whole brain lysate (3xTg-AD mice, 7.5, 15 and 30 mg/kg, 7 days, relative to untreated 3xTg-AD): reduced PRMT4 expression in whole brain lysate in a dose-dependent manner
